We go through four compounds from patent publication US4820804A, “Analogs of [1,7-di-alanine, des-19-leucine]calcitonin” (Rorer Pharmaceutical Corporation, priority 1987, dated 1989).

Assay [1] relates to serum calcium concentration. The following applies: rat, in vivo, sc.
Method: SCT and synthetic salmon calcitonin standard. Rats were divided into four groups of seven animals, and each group was assigned at random to a dose of standard or test solution. Low and high doses were chosen from the linear portion of the dose-response curve. For the salmon calcitonin standard, the values were 0.7 and 2.1 mcg. peptide/100 g. BW. Peptides were given by subcutaneous injection (0.2 ml/100 g. BW) and blood was withdrawn 1 hour later for serum calcium determination. Sera are processed and analyzed within two hours of collection. Results were analyzed within two hours of collection.
Assay [2] in a line: Independent determination of the potency of the standard salmon calcitonin. The note with it: standard used in the rat assay, independently determined. Here is the method:
The biological potency of [N-alpha-Propionyl-1,7-Di-Ala,Des-19-Leu] salmon calcitonin was determined by comparing the reduction of serum calcium concentration which followed administration by graded doses of [N-alpha-Propionyl-1,7-Di-Ala,Des-19-Leu] SCT and synthetic salmon calcitonin standard. Rats were divided into four groups of seven animals, and each group was assigned at random to a dose of standard or test solution. Low and high doses were chosen from the linear portion of the dose-response curve. For the salmon calcitonin standard, the values were 0.7 and 2.1 mcg. peptide/100 g. BW. Peptides were given by subcutaneous injection (0.2 ml/100 g. BW) and blood was withdrawn 1 hour later for serum calcium determination. Sera are processed and analyzed within two hours of collection. […]. Results were analyzed by a 2×2 parallel line assay [Gaddum, J. H., J. Pharm. Pharmacol., 6, 345 (1953)]. The standard salmon calcitonin used was independently determined to contain greater than 4,000 IU/mg.

Residues, ends and D or L forms follow the SMILES beside them. *: point of attachment. Propionyl = CCC(=O)*

Consider `CCC(=O)N[C@@H](CO)C(=O)N[C@@H](CC(N)=O)C(=O)N[C@@H](CC(C)C)C(=O)N[C@@H](CO)C(=O)N[C@H](C(=O)N[C@@H](C)C(=O)N[C@H](C(=O)N[C@@H](CC(C)C)C(=O)NCC(=O)N[C@@H](CCCCN)C(=O)N[C@@H](CC(C)C)C(=O)N[C@@H](CO)C(=O)N[C@@H](CCC(N)=O)C(=O)N[C@@H](CCC(=O)O)C(=O)N[C@@H](CC(C)C)C(=O)N[C@@H](Cc1c[nH]cn1)C(=O)N[C@@H](CCCCN)C(=O)N[C@@H](CCC(N)=O)C(=O)N[C@H](C(=O)N[C@@H](Cc1ccc(O)cc1)C(=O)N1CCC[C@H]1C(=O)N[C@@H](CCCNC(=N)N)C(=O)N[C@H](C(=O)N[C@@H](CC(N)=O)C(=O)N[C@H](C(=O)NCC(=O)N[C@@H](CO)C(=O)NCC(=O)N[C@H](C(=O)N1CCC[C@H]1C(N)=O)[C@@H](C)O)[C@@H](C)O)[C@@H](C)O)[C@@H](C)O)C(C)C)[C@@H](C)O` [Des-1-Amino] (Propionyl-SNLSTAVLGKLSQELHKQTYPRTNTGSGTP-NH2), for which the Potency in assay [1] is given as 7300 Iu/mg.
Still for that read-out and setting: then `CCC(=O)N[C@@H](C)C(=O)N[C@@H](CO)C(=O)N[C@@H](CC(N)=O)C(=O)N[C@@H](CC(C)C)C(=O)N[C@@H](CO)C(=O)N[C@H](C(=O)N[C@@H](C)C(=O)N[C@H](C(=O)N[C@@H](CC(C)C)C(=O)NCC(=O)N[C@@H](CCCCN)C(=O)N[C@@H](CC(C)C)C(=O)N[C@@H](CO)C(=O)N[C@@H](CCC(N)=O)C(=O)N[C@@H](CCC(=O)O)C(=O)N[C@@H](CC(C)C)C(=O)N[C@@H](Cc1c[nH]cn1)C(=O)N[C@@H](CCCCN)C(=O)N[C@@H](CCC(N)=O)C(=O)N[C@H](C(=O)N[C@@H](Cc1ccc(O)cc1)C(=O)N1CCC[C@H]1C(=O)N[C@@H](CCCNC(=N)N)C(=O)N[C@H](C(=O)N[C@@H](CC(N)=O)C(=O)N[C@H](C(=O)NCC(=O)N[C@@H](CO)C(=O)NCC(=O)N[C@H](C(=O)N1CCC[C@H]1C(N)=O)[C@@H](C)O)[C@@H](C)O)[C@@H](C)O)[C@@H](C)O)C(C)C)[C@@H](C)O` [N--Alpha-Propionyl, [N alpha-Propionyl, 1,7-Di-Alanine, Des-19-Leucine] salmon calcitonin] (Propionyl-ASNLSTAVLGKLSQELHKQTYPRTNTGSGTP-NH2), with 7600 Iu/mg; and `CC(C)C[C@H](NC(=O)[C@H](CCCCN)NC(=O)CNC(=O)[C@H](CC(C)C)NC(=O)[C@@H](NC(=O)[C@H](C)NC(=O)[C@@H](NC(=O)[C@H](CO)NC(=O)[C@H](CC(C)C)NC(=O)[C@H](CC(N)=O)NC(=O)[C@H](CO)NC(=O)[C@H](C)N)[C@@H](C)O)C(C)C)C(=O)N[C@@H](CO)C(=O)N[C@@H](CCC(N)=O)C(=O)N[C@@H](CCC(=O)O)C(=O)N[C@@H](CC(C)C)C(=O)N[C@@H](Cc1c[nH]cn1)C(=O)N[C@@H](CCCCN)C(=O)N[C@@H](CCC(N)=O)C(=O)N[C@H](C(=O)N[C@@H](Cc1ccc(O)cc1)C(=O)N1CCC[C@H]1C(=O)N[C@@H](CCCNC(=N)N)C(=O)N[C@H](C(=O)N[C@@H](CC(N)=O)C(=O)N[C@H](C(=O)NCC(=O)N[C@@H](CO)C(=O)NCC(=O)N[C@H](C(=O)N1CCC[C@H]1C(N)=O)[C@@H](C)O)[C@@H](C)O)[C@@H](C)O)[C@@H](C)O` [Parent, [1,7 Di-Alanine, Des-19-Leucine]Salmon Calcitonin] (H-ASNLSTAVLGKLSQELHKQTYPRTNTGSGTP-NH2), with 7400 Iu/mg.
Turning to “Salmon calcitonin [standard salmon calcitonin]”, the “potency content of standard salmon calcitonin” value in assay [2] is “greater than 4,000 IU/mg”.
